From ChEMBL document CHEMBL1201862, “PubChem BioAssay data set” (2004)
Calls of active or inactive are those of the source.

Experiments:
[1] = molecular target: T1, Sentrin-specific protease 8 (Homo sapiens, UniProt Q96LD8); type: functional
T1 sequence (Q96LD8 whole entry): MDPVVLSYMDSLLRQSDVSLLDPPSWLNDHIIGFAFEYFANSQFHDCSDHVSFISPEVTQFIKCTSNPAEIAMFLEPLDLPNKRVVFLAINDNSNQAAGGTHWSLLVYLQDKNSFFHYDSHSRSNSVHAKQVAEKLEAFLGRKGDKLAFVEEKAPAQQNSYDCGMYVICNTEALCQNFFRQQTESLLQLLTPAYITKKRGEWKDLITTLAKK

[2] = molecular target: T1, Sentrin-specific protease 8; type: functional; remark: listed apart in the source
[3] = molecular target: Heat shock protein HSP 90-alpha (Homo sapiens, UniProt P07900); type: functional, organism-based
Vero = experiment: viability loss in Vero cells – cell-based, plate reader, cherry-pick samples, cytotoxicity control, dose response (AID 687020); type: functional; conditions: Chlorocebus sabaeus
[4] = molecular target: NAD-dependent protein deacylase sirtuin-5, mitochondrial (Homo sapiens, UniProt Q9NXA8); experiment: sirtuin-5 deacylation blockers, concentration series – biochemical, fluorescence imaging, cherry-pick, set 5, dose response (AID 720591);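 also: desuccinylation of succinyl peptide AMC substrate read as fluorescence after trypsin release; potency of inhibitors that lower fluorescence and may act on trypsin instead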
Chain of NAD-dependent protein deacylase sirtuin-5, mitochondrial (Q9NXA8 whole entry): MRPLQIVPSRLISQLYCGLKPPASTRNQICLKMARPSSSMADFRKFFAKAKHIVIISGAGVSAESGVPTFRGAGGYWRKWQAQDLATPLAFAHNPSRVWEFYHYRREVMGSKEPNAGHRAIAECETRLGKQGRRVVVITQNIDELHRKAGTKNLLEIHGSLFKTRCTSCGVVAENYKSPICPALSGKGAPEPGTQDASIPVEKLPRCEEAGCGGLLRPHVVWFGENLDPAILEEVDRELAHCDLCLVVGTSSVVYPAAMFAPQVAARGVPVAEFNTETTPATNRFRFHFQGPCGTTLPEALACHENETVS

HEK293 [5] = experiment: EBV LMP1 TES2 canonical NF-kB signalling blockers – cell-based, HEK293, luciferase, cherry-pick, dose response (AID 588343); type: functional; conditions: Homo sapiens
[6] = reduction of Shn3 3'UTR-driven luciferase in osteoblasts – cell-based, Clone20 osteoblasts, firefly luciferase, cherry-picked, dose response (AID 624132); type: functional;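 also: firefly luciferase luminescence from reporter carrying the Shn3 3'UTR in osteoblasts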
[7] = loss of viability in HepG2 cells – cell-based, CellTiter-Glo, cherry-picked, cytotoxicity control for Shn3 inhibitor project, dose response (AID 624134); type: functional
[8] = non-specific 3'UTR reporter inhibition in Clone20-Shn3RL – cell-based, Renilla luciferase, cherry-picked, counter-screen for Shn3 inhibitor project, dose response (AID 624133); type: functional
[9] = Fluorescence-based cell-based high throughput dose response assay for inhibitors of the interaction of nucleotide-binding oligomerization domain containing 2 (NOD2) and the receptor-interacting serine-threonine kinase 2 (RIPK2).; type: functional; conditions: Homo sapiens
Paired box protein Pax-8 = Paired box protein Pax-8 (Homo sapiens, UniProt Q06710); experiment: PAX8 transcriptional activity inhibition in RMG-I – RMG-I cells, luciferase, cherry-pick, dose response (AID 687027); type: functional, cell-based;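 also: luciferase reporter driven by Pax8 target thyroperoxidase promoter measured by SteadyGlo luminescence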
Chain of Paired box protein Pax-8 (Q06710 whole entry): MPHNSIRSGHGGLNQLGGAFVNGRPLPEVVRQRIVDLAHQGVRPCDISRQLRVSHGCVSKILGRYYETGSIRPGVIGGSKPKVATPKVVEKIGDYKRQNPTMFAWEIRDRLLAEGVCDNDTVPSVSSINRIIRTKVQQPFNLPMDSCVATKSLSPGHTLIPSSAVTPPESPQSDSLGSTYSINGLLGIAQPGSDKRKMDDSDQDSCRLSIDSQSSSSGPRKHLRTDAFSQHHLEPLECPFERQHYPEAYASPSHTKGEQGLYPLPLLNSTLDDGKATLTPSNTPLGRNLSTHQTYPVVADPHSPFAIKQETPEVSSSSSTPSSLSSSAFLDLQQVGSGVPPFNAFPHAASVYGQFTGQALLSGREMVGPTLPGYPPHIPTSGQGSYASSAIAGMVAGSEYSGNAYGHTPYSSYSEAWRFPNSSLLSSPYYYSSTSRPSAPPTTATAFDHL

HEK293 [10] = experiment: cells; type: functional, cell-based; conditions: Homo sapiens
[11] = molecular target: T2, Nuclear receptor subfamily 0 group B member 1 (Homo sapiens, UniProt P51843); experiment: Luminescence-based cell-based high throughput dose response assay for inhibitors of the orphan nuclear receptor subfamily 0, group B, member 1 (DAX1; NR0B1). [Related pubchem assays (depositor defined):AID504766, AID504790]; type: functional
T2 sequence (P51843 whole entry): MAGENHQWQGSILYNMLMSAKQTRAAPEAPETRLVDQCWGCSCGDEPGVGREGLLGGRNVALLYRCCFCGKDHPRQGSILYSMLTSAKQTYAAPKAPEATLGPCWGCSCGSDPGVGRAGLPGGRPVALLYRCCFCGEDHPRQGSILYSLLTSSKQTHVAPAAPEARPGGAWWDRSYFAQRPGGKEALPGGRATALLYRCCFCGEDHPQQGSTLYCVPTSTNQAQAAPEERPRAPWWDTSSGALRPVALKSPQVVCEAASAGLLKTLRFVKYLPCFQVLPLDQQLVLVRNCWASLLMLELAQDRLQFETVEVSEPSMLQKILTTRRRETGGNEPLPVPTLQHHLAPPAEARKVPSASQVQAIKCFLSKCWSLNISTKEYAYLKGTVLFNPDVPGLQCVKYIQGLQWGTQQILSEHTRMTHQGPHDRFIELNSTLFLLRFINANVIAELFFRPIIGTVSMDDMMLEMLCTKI

[12] = viability loss in HeLa cells – cytotoxicity control for MgcRacGAP inhibitor project, dose response (AID 624300); type: functional
[13] = molecular target: T3, Rac GTPase-activating protein 1 (Homo sapiens, UniProt Q9H0H5); experiment: blockers of MgcRacGAP-driven Rac1 GTP hydrolysis – biochemical, ADP Hunter fluorescence, primary and confirmatory, confirmation (AID 624330); type: functional
T3 sequence (Q9H0H5 whole entry): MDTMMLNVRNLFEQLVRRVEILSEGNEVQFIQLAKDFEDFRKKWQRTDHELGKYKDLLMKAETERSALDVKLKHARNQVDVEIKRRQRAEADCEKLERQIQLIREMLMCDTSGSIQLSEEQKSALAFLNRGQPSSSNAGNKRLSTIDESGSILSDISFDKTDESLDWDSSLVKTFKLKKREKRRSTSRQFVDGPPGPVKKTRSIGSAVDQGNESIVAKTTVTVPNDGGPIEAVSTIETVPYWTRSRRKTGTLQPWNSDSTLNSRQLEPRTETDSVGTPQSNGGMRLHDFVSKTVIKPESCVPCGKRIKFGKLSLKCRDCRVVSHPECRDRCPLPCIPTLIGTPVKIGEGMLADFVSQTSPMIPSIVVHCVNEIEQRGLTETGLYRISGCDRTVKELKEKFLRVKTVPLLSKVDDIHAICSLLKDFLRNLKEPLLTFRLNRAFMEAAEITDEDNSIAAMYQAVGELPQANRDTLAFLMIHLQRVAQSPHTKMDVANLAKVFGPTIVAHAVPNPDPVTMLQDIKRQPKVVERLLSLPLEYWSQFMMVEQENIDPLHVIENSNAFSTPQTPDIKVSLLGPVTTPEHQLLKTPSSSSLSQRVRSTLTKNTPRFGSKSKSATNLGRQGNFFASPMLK

[14] = A549 cell cytotoxicity, dose response, cytotoxicity control, plate reader, cherry-pick, antagonist series (AID 743412); type: functional, cell-based
[15] = toxicity toward HepG2 liver cells – cell-based, plate reader, cherry-pick, antagonist series, cytotoxicity control, dose response (AID 743416); type: functional
[16] = blockers of bursicon-stimulated LGR2 cAMP reporter – cell-based, HEK293, CRE-luciferase reporter, cherry pick, set 2, dose response (AID 743343); type: functional;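 also: transfected cells were stimulated with diluted bursicon conditioned medium after compound addition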
[17] = blockade of melanocortin 4 receptor signaling – cell-based, plate reader, cherry pick, counter-screen for LGR2 antagonist project, dose response (AID 743444); type: functional;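 also: transfected HEK 293 cells stimulated with alpha-MSH peptide; potency of inhibitors of the alpha-MSH evoked signal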
[18] = rise of 2N DNA cells, HeLa – IC50, dose response (AID 1117349); type: functional, cell-based
[19] = rise of 4N DNA cells, HeLa – IC50, dose response (AID 1117351); type: functional, cell-based
[20] = molecular target: T4, Mannose-6-phosphate isomerase (Homo sapiens, UniProt P34949); experiment: MPI inhibition at elevated mannose 6-phosphate – biochemical, fluorescence intensity, high mannose 6-phosphate, primary screen (AID 1220)
T4 sequence (P34949 whole entry): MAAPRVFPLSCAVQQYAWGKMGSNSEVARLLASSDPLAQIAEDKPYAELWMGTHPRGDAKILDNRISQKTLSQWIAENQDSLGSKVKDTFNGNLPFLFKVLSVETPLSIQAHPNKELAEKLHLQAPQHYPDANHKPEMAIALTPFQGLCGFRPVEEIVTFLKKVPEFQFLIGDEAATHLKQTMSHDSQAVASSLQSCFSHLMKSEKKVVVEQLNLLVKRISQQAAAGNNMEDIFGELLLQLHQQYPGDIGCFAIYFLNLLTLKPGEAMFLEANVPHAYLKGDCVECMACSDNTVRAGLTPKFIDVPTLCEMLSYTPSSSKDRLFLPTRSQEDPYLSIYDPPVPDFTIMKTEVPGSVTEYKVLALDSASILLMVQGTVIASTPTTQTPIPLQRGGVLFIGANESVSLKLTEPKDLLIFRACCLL

Question: Which IC50 [1] does the source give for `CC(C)(C)OC(=O)NCCCCCNC(=O)c1[nH]cnc1C(=O)N1CCc2ccccc2C1` here?
Answer: The IC50 was > 100 µM (inactive).

Question: What about the IC50 [2] of the same compound?
Answer: The IC50 was 14.9 µM (active).

Question: For `Cc1cccc(COC(=O)CCCNC(=O)c2ccc(Cl)cc2)c1`, which AC50 [3] is on record?
Answer: The AC50 was 8.04 µM (active).

Question: For `O=C1c2ccccc2[C@@H]2C[C@@H](O)[C@H](Nc3cccc4ccccc34)CCN12`, which AC50 (Vero) is on record?
Answer: Its AC50 is 29.8 µM (active).

Question: Which AC50 [4] does the source give for `O=C(O)c1ccc(CNCc2cccc(Cl)c2)cc1` here?
Answer: The AC50 was > 30 µM (inactive).

Question: With `O=C(NN=Cc1ccc(N(CCCl)CCCl)cc1Cl)c1cccnc1` as the compound, how does the AC50 (HEK293 [5]) read?
Answer: Its AC50 is 1.26 µM (active).

Question: For `CC(CNC(=O)Cn1ccc(NC(=O)OCc2ccccc2)nc1=O)c1ccccc1` (stereo not given), which AC50 (Vero) is on record?
Answer: Its AC50 is 24.6 µM (active).

Question: For `CC(OC(=O)c1ccc2c(=O)n3c(nc2c1)CCC3)C(=O)NC1CCCCC1C` (stereo not given), which AC50 (Vero) is on record?
Answer: Its AC50 is 31.1 µM (active).

Question: Which AC50 [4] does the source give for `CCOc1ccc(NC(=O)COC(=O)Cc2ccsc2)cc1` here?
Answer: Its AC50 is 22.3 µM (active).

Question: With `C=C1C(=O)[C@]23C[C@H]1CCC2[C@]1(C)CCC[C@@](C)(C(=O)O)C1C[C@@H]3O` (stereo not given in full) as the compound, how does the AC50 [6] read?
Answer: The AC50 was 1.2 µM (active).

Question: And the AC50 [7]?
Answer: Its AC50 is > 70 µM (inactive).

Question: And the AC50 [8]?
Answer: Its AC50 is 8.47 µM (active).

Question: And the IC50 [9]?
Answer: The IC50 was 7.03 µM (active).

Question: And the AC50 (Paired box protein Pax-8)?
Answer: Its AC50 is 1.77 µM (active).

Question: What does the source list for `O=c1c(-c2ccccc2)c[nH]n1-c1cccc([N+](=O)[O-])c1`?
Answer: IC50 (HEK293 [10]): > 67.5 µM (inactive); IC50 [11]: > 67.5 µM (inactive); CC50 [12]: 100 µM (active); IC50 [13]: 48.4 µM (active)

Question: With `C[C@H]1CN([C@@H](C)CO)C(=O)c2cccc(NC(=O)NC3CCCCC3)c2O[C@@H]1CN(C)Cc1ccc(C(F)(F)F)cc1` as the compound, how does the AC50 [14] read?
Answer: Its AC50 is 19.2 µM (active).

Question: And the AC50 [15]?
Answer: The AC50 was 26.4 µM (active).

Question: And the AC50 [16]?
Answer: The AC50 was 46.4 µM (active).

Question: And the AC50 [17]?
Answer: Its AC50 is 17.1 µM (active).

Question: Which IC50 [18] does the source give for `CC(C)=CCC/C(C)=C/CC/C(C)=C/C(=O)OCC(=O)[C@@]1(O)CC[C@H]2[C@@H]3CCC4=CC(=O)C=C[C@]4(C)[C@H]3[C@@H](O)C[C@@]21C` here?
Answer: The IC50 was > 10 µM (inactive).

Question: What about the IC50 [19] of the same compound?
Answer: The IC50 was > 10 µM (inactive).

Question: For `O=C(CNc1cccc2ccccc12)N/N=C/c1ccc(OC(=O)/C=C/c2ccco2)cc1`, which IC50 [20] is on record?
Answer: The IC50 was > 50 µM (not active).
